Results as given in the METLIN SMRT retention time set (Domingo-Almenara et al. 2019).

Test: gradient 5% acetonitrile 3 min, to 50% in 2 min, to 85% in 15 min, held 3 min, 100 µL/min
Conditions: column: Zorbax Extend-C18 2.1 x 50 mm; eluents: water / acetonitrile, 0.1% formic acid
Procedure, shortened: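 Retention times of pure standards were taken from adduct peaks that were selected by computer and manually inspected. Over 3 months, mixtures of ~100 molecules were run by HPLC–quadrupole time-of-flight mass spectrometry in positive and negative ionization mode. The Zorbax Extend-C18 column (2.1 × 50 mm, 1.8 μm) ran at 100 μL/min in water and acetonitrile, each containing 0.1% formic acid, with 40 μL dead volume and 900 μL dwell volume.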

SMILES | RP-LC retention time
COc1ccccc1NC(=O)C1CCN(S(=O)(=O)c2cc(-c3noc(C)n3)cs2)CC1 | 918 s
O=C(CN1CC=C(c2cnn(-c3ccccc3)c2)CC1)Nc1ccc2c(c1)OCCO2 | 675 s
Cc1cc(C)cc(C(=O)NC(c2ccccc2)c2nnc(N3CCCC3)o2)c1 (stereo not drawn) | 868 s
COc1ccc(-c2noc(C3CCCN3C(=O)COc3ccccc3)n2)cc1 (stereo not drawn) | 936 s
O=C(CN1CCN(C(=O)CCc2ccccc2)CC1)c1cccs1 | 550 s
O=C(NC1CC1)[C@@H]1C[C@H](Oc2ccccc2)CN1C(=O)CCCc1c[nH]c2ccccc12 | 834 s
c1ccc(-c2ccc3c(c2)NC(C2Nc4cc(-c5ccccc5)ccc4O2)O3)cc1 (stereo not drawn) | 1240 s
COc1ccc(NC(=O)N2CCC3(CC2)N=C(c2cccc(Cl)c2)C(=O)N3)c(OC)c1 | 856 s
O=C(Nc1cccc(Cl)c1)c1c(O)c2cccnc2n(-c2ccc(F)cc2)c1=O | 1320 s
Cc1cccc(-c2nnc(-c3cccc(S(=O)(=O)N4CCCCC4)c3)o2)c1 | 1140 s
Cc1ccc(Cn2c(N3CCCC(C(=O)NCc4cccs4)C3)nc3ccsc3c2=O)cc1 (stereo not drawn) | 952 s
Cc1ccn2c(Nc3ccc4c(c3)OCCO4)c(-c3ccccc3)nc2c1 | 690 s
NC(=O)c1ccc2c(c1)CCCN2C(=O)c1cccc(Cl)c1 | 724 s
Cc1ccc(S(=O)(=O)CCc2noc(C(=O)NCCCN3CCCC(C)C3)n2)cc1 (stereo not drawn) | 632 s
O=C(Nc1ccccn1)C1CCCN(S(=O)(=O)c2cc(-c3noc(C4CCC4)n3)cs2)C1 (stereo not drawn) | 978 s
O=C(CSc1nnc2ccc3ccccc3n12)c1ccc(Cl)cc1 | 875 s
Cc1ccc(-n2c(=O)c3c(cc(C)n3C)n(CC(=O)Nc3ccc(C)c(C)c3)c2=O)cc1 | 906 s
Cc1cccc(-c2nc(Cn3nnc(-c4nc(-c5cccs5)no4)c3C)c(C)o2)c1 | 1220 s
Cn1nc2ccc(S(=O)(=O)N3CCCCC3)cn2c1=O | 703 s
C=CCn1c(C)c(CC(=O)Nc2cccc(C)c2)c(=O)n2nc(-c3ccc(C)cc3)nc12 | 989 s
O=C(Cn1cc(-c2ccccc2)c2ncnc(N3CCOCC3)c21)NCc1ccc(Cl)cc1 | 778 s
Cc1ccc(-n2nc(N3CCCN(S(=O)(=O)c4ccc(Cl)cc4)CC3)ccc2=O)cc1 | 935 s
COCc1nc2cccnc2n1C1CCN(C(=O)Nc2ccccc2Br)CC1 | 724 s
CCOC(=O)C(C)NC(=O)N1CCCN(C2=NS(=O)(=O)C(c3ccccc3)=C2C)CC1 (stereo not drawn) | 761 s
COCc1cnc2c(c1SCc1ccc(F)cc1)c(=O)n(C)c(=O)n2C | 997 s
CSc1nc2ccc3nc(NC(=O)c4cc(C)no4)sc3c2s1 | 1010 s
N#Cc1cccc(-c2cn3c(n2)N(C(=O)c2cccnc2)CCC3)c1 | 641 s
O=C(C1=CN(c2cc(F)cc(F)c2)c2ccccc2S1(=O)=O)N1CCCC1 | 786 s

SMILES | RP-LC retention time
CC1=C(c2ccccc2)S(=O)(=O)N=C1N1CCCN(C(=O)c2ccc(Cl)cc2)CC1 | 863 s
CCCCc1ccc(NC(=O)N2CCCC2c2nncn2C2CCCC2)cc1 (stereo not drawn) | 864 s
CCn1c(=O)c(NCc2cccc(Cl)c2)nc2ccncc21 | 649 s
O=C(Nc1ccc(-n2cnnn2)cc1)c1ccc(N2CCCC2)nn1 | 620 s
CNC(=O)c1ccsc1NC(=O)c1ccc(Cl)s1 | 882 s
CC(C)Oc1ccc(CNS(=O)(=O)c2cc3c(s2)CCN(C(=O)C2CCC2)C3)cc1 | 1010 s
COc1ccc2c(c1)CC(NC(=O)NCCCN1CCN(Cc3ccccc3)CC1)CO2 (stereo not drawn) | 634 s
O=c1n(Cc2ccccc2F)nc2c(S(=O)(=O)N3CCc4ccccc4C3)cccn12 | 947 s
CCN1C(=O)COc2ccc(-c3noc(C4(c5ccccc5)CC4)n3)cc21 | 991 s
CC(=O)c1ccc(N2CCN(S(=O)(=O)CCCOc3ccc(F)cc3)CC2)cc1 | 753 s
COCc1nncn1C1CCN(S(=O)(=O)c2ccc(Cl)c(C)c2)CC1 | 765 s
CC1=NS(=O)(=O)N(Cc2ccccc2)C=C1C(=O)OCc1ccc(Cl)cc1 | 1160 s
N#Cc1ccsc1NC(=O)CCSc1ccccc1 | 879 s
CN(C(=O)CN1C(=O)C(O)(c2cccc(F)c2)c2ccccc21)c1ccccc1 (stereo not drawn) | 856 s
Cc1nc(C2(C)CCN(S(=O)(=O)c3ccc(C(C)C)cc3)CC2)no1 | 1050 s
O=C(Cn1ccc2ccccc21)N1CCN(c2ccc(C(F)(F)F)cn2)CC1 | 982 s
OCCOCCNCc1ccc(-c2ccc(Cl)cc2)o1 | 644 s
O=C(NCC1CCCO1)c1ccc([N+](=O)[O-])cc1Cl (stereo not drawn) | 664 s
Cc1ccc(Nc2c(-c3ccc(O)cc3)nc3cc(C)ccn23)cc1 | 696 s
CCOc1ccc(-c2nc(C3CC(=O)N(c4ccc(Cl)cc4)C3)no2)cc1 (stereo not drawn) | 1130 s
O=C(NCc1ccc2c(c1)OCO2)c1c(O)c2cccnc2n(-c2ccc(F)cc2)c1=O | 1120 s
COc1ccc(Cn2nc3c(S(=O)(=O)N4CCCCCC4)cccn3c2=O)cc1 | 909 s
CC(C)n1nnc2ccc(-c3noc(-c4ccccc4)n3)cc21 | 1130 s
Cc1cc(C(=O)NC(C)C)n[nH]1 | 592 s
COc1cccc2c1oc(=O)c1c(NC(C)=O)nc3c(c12)CCCCC3 | 1020 s
O=C(NC1CC1)[C@@H]1C[C@H](Oc2ccccc2)CN1C(=O)C1(c2ccccc2)CC1 | 855 s
COc1ccc(NC(=O)N2CCCC(Cn3cnc4cccnc43)C2)cc1 (stereo not drawn) | 610 s

Further lines, results first:

RP-LC retention time | SMILES
1020 s | CC(C)(C)C(=O)N1CCCC(c2ccnc(-c3ccccc3)n2)C1 (stereo not drawn)
1190 s | COc1ccccc1-c1nnc(-c2ccc(Cl)c(S(=O)(=O)N3CCC(C)CC3)c2)o1
718 s | O=C(CCC(=O)N1CCN(C(c2ccccc2)c2ccccc2)CC1)Nc1noc2ccccc12
810 s | O=C(c1cccs1)N1CCC2(CC1)NC(=O)N(Cc1cccc(Cl)c1)C2=O
657 s | COCCc1nncn1C1CCN(C(=O)c2cc(Cl)ccc2F)CC1
856 s | COC(=O)C1CCN([C@H]2CS(=O)(=O)C[C@@H]2S(=O)(=O)c2ccc(Cl)cc2)CC1
792 s | O=C(NCCn1nnc2cc(C(=O)N3CCCC3)ccc21)Nc1ccc(Cl)cc1
672 s | CCOCCCNCc1ccc(-c2ccc(F)cc2)o1
881 s | Cc1cc(-c2nnc(-c3ccco3)o2)c(C)n1CC(=O)Nc1cccc(F)c1
642 s | Cc1nnc(C2CCCN(C(=O)c3ccc(S(=O)(=O)N(C)C)cc3)C2)s1 (stereo not drawn)
865 s | Cc1nnc(-c2cc(NC(=O)c3ccc(F)cc3Cl)c(C)s2)o1
688 s | COc1ccc(-c2noc(-c3cccn(CC(=O)NC(C)C)c3=O)n2)cc1OC
603 s | O=C(CC1CCN(C(=O)Nc2ccccc2)CC1)N1CCN(c2ccccn2)CC1
1180 s | CCOC(=O)c1c(C)c(C(=O)Nc2cc(Cl)ccc2OC)c(C)n1CC
734 s | COc1ccccc1NC(=O)C1CCN(S(=O)(=O)c2ccc3[nH]c(=O)ccc3c2)CC1
682 s | Cc1nc2c(-c3ccc(F)cc3)c(C)nn2c(C)c1CCC(=O)N1CCN(c2ccccn2)CC1
625 s | Cc1nnsc1C(=O)N1CCC(C(=O)Nc2nccs2)CC1

RP-LC retention time | SMILES
1030 s | O=C(C1CCN(S(=O)(=O)c2ccc(-c3noc(C4CC4)n3)cc2)CC1)N1CCCCCC1
801 s | O=C(Nc1ccc2c(c1)OCO2)Nc1cccn2c(C3CCC3)nnc12
638 s | CCOC(=O)C1CCC(CNC(=O)Nc2cc3c(cc2N2CCCC2)n(C)c(=O)n3C)CC1 (stereo not drawn)
807 s | Cc1ccccc1S(=O)(=O)Nc1ccc(C(=O)N2CCCC2C(=O)NCCC(C)C)cc1 (stereo not drawn)
647 s | Cc1sc2nc(SCc3ccc(C(=O)NCCO)cc3)[nH]c(=O)c2c1C
1100 s | CSc1ccc(-c2noc(Cc3nnc(-c4cc(F)cc(F)c4)o3)n2)cc1
658 s | CCNc1cc(N2CCCC(CCC(=O)NC(CC)CC)C2)ncn1 (stereo not drawn)
704 s | CCOC(=O)c1c(CN2CCOCC2)n(C)c2cc(Br)c(OC(C)=O)cc12
685 s | NC(N)=NCCC[C@H](NC(=O)c1sccc1NS(=O)(=O)c1cccc2nsnc12)C(=O)O
848 s | COc1ccc(OCC(=O)N(C)CCc2noc(COc3ccccc3F)n2)cc1
548 s | CCOC(=O)Cn1c(=N)n(CCN2CCOCC2)c2ccccc21
932 s | CC1(C)CC(=O)c2cn(-c3ccccc3)c(=O)c(C(=O)NC3CCCC3)c2C1
707 s | COc1ccccc1-c1nnc(NC(=O)COc2ccccc2)o1
730 s | COCc1noc(C2CCCCCN2C(=O)NC(C)C)n1 (stereo not drawn)
1170 s | COc1ccc(-n2c(=O)c(C(=O)NCc3ccc(F)cc3F)c(O)c3cccnc32)cc1
1080 s | Cc1ccc(NC(=O)Cn2nc(-n3cccc3)c3c(C)cc(C)nc32)c(C)c1
